From US20190166840A1, “SUBSTITUTED PYRAZOLINYL DERIVATIVES, PROCESSES FOR THEIR PREPARATION AND THEIR USE AS HERBICIDES AND/OR PLANT GROWTH REGULATORS” (BAYER CROPSCIENCE AKTIENGESELLSCHAFT, priority 2016, published 2019)

What was measured:
Assay type in all cases: in vivo
Details in all cases: application rate 1280 g/ha, scored visually after about 3 weeks
Hordeum murinum = test: Pre-emergence herbicidal action, HORMU
Description: (§1) Pre-Emergence Herbicidal Action Seeds of mono- and dicotyledonous weed plants or crop plants were placed in sandy loam in wood fibre pots and covered with soil. The formulated compounds of the general formula (I) according to the invention were then applied to the surface of the covering soil in the form of an aqueous suspension or emulsion at an application rate of 600 l of water/ha (converted) with addition of 0.2% wetting agent. After the treatment, the pots were placed in a greenhouse and kept under good growth conditions for the test plants. After about 3 weeks, the effect was scored visually in percent in comparison to untreated controls. For example, 100% activity=the plants have died, 50% herbicidal activity or damage=plants reduced to 50% or plant material reduced by 50%, 0% activity=like control plants. Here, in the biological tests, the compounds of the general formula (I) according to the invention were in each case employed in a formulation, with the numerations of Tables I.1 to I.77 also applying here. Here, the herbicidal action of the compounds of the general formula (I) according to the invention was examined for the following harmful plants: HORMU=Hordeum murinum The respective herbicidal action was in each case determined at the same point in time after application of the formulation in question, i.e. damage of the harmful plant in question in %. Pre-emergence herbicidal action of the compounds of the general formula (I) according to the invention: […]

Abutilon theophrasti = test: Pre-emergence herbicidal action, ABUTH
Description: as §1, with “ABUTH=Abutilon theophrasti” for “HORMU=Hordeum murinum”

Setaria viridis = test: Pre-emergence herbicidal action, SETVI
Description: as §1, with “SETVI=Setaria viridis” for “HORMU=Hordeum murinum”

[1] = tested on: Matricaria inodora (=Tripleurospermum maritimum subsp. inodorum); test: Pre-emergence herbicidal action, MATIN
Description: as §1, with “MATIN=Matricaria inodora (=Tripleurospermum maritimum subsp. inodorum)” for “HORMU=Hordeum murinum”

[2] = tested on: Polygonum convolvulus (=Fallopia convolvulus); test: Pre-emergence herbicidal action, POLCO
Description: as §1, with “POLCO=Polygonum convolvulus (=Fallopia convolvulus)” for “HORMU=Hordeum murinum”

| SMILES | Pre-emergence herbicidal action HORMU, damage of the harmful plant (Hordeum murinum) | Pre-emergence herbicidal action ABUTH, damage of the harmful plant (Abutilon theophrasti) | Pre-emergence herbicidal action SETVI, damage of the harmful plant (Setaria viridis) | Pre-emergence herbicidal action MATIN, damage of the harmful plant [1] | Pre-emergence herbicidal action POLCO, damage of the harmful plant [2] |
| --- | --- | --- | --- | --- | --- |
| CC1=C(C)C(O)N(C2=NN(c3ccccn3)C(C)(C)C2)C1=O (stereo not drawn) [I.2-132] | 0% | 70% | 40% | 0% | 40% |
| CC1=C(C)C(O)N(C2=NN(c3ccccc3)C(C(F)(F)F)C2)C1=O (stereo not drawn) [I.2-1413] | 60% | 0% | 70% | 100% | 100% |
| CCC(=O)OC1C(C)=C(C)C(=O)N1C1=NN(c2ccccn2)C(C)(C)C1 (stereo not drawn) [I.23-132] | 20% | 0% | 0% | 40% | 0% |
| CCC(=O)OC1C(C)=C(C)C(=O)N1C1=NN(c2ccccc2)CC1 (stereo not drawn) [I.23-621] | 0% | 0% | 50% | 50% | 100% |
| CCC(=O)OC1C(C)=C(C)C(=O)N1C1=NN(c2ccccc2)C(C(F)(F)F)C1 (stereo not drawn) [I.23-1413] | 30% | 0% | 40% | 70% | 80% |
| CCC(=O)OC1C(C)=C(Cl)C(=O)N1C1=NN(C)C(c2ccccc2)C1 (stereo not drawn) [I.24-1126] | 20% | 0% | 0% | 90% | 0% |
